Test results taken from US20240254087A1, “SELECTIVE, PARTIAL, AND ARRESTIN-BIASED 5-HT2A AGONISTS WITH UTILITY IN VARIOUS DISORDERS” (Saint Joseph's University, priority 2021, published 2024).
Read-outs that look alike come from different tables or passages of the source.

Tests used:
5-HT2B [1] = molecular target: T1, 5-HT2B (Homo sapiens, UniProt P41595); assay: Competitive radioligand binding (NIMH PDSP); design: expressed in transfected cells
Experimental: (§1) Method 1: Competitive binding experiments were performed by the National Institute of Mental Health Psychoactive Drug Screening Program (NIMH PDSP) using described methods or 5-HT2A experiments performed using [3H]-ketanserin displacement in human 5-HT2A expressing membranes. Target compounds were dissolved in DMSO and an initial screen performed to assess displacement of the radioligand from target receptors at a concentration of 10,000 nM. […] For the Ki experiments, compounds were always tested in triplicate on separate plates. Each plate also contained a known ligand for the receptor as a positive control.

5-HT2C [2] = molecular target: T2, 5-HT2C (Homo sapiens, UniProt P28335); assay: Competitive radioligand binding (NIMH PDSP); design: expressed in transfected cells
T2 sequence (P28335 33-458): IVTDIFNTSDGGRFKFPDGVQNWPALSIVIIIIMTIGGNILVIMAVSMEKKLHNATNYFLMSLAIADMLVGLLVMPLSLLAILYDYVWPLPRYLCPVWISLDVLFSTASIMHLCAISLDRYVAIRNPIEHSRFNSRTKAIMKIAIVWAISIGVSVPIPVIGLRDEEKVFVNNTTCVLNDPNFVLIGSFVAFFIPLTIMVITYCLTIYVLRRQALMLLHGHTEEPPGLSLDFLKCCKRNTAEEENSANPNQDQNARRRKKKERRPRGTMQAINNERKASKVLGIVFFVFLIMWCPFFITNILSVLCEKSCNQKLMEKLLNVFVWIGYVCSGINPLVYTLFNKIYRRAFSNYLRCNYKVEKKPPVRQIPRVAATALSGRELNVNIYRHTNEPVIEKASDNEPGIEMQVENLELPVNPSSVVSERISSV
Experimental: as §1

5-HT2B [3] = molecular target: T1, 5-HT2B; assay: Ca2+ flux assay, 5-HT2B; assay type: cell-based; design: expressed in transfected cells; conditions: for Emax: read-out: 5-HT2B Emax % 5-HT
5-HT1B = 5-HT1B (Homo sapiens, UniProt P28222); assay: Competitive radioligand binding (NIMH PDSP)
Experimental: as §1

5-HT1D = 5-HT1D (Homo sapiens, UniProt P28221); assay: Competitive radioligand binding (NIMH PDSP)
Experimental: as §1

5-HT1A = molecular target: T3, 5-HT1A (Homo sapiens, UniProt P08908); assay: Competitive radioligand binding (NIMH PDSP)
T3 sequence (P08908 1-422): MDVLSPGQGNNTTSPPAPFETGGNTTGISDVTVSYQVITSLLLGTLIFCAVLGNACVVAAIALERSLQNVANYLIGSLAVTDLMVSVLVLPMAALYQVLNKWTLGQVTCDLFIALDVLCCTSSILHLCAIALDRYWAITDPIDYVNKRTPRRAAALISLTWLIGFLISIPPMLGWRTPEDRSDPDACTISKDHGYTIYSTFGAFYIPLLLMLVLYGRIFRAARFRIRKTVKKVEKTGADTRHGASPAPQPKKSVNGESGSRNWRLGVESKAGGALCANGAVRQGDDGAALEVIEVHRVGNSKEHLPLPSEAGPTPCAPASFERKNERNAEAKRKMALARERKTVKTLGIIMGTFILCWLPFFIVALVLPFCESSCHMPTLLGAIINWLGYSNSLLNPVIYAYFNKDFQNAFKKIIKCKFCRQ
Experimental: as §1

5-HT2A [4] = molecular target: T4, 5-HT2A (Homo sapiens, UniProt P28223); assay: Competitive radioligand binding (NIMH PDSP)
Experimental: as §1

5-HT1e = 5-HT1e (Homo sapiens, UniProt P28566); assay: Competitive radioligand binding (NIMH PDSP)
Experimental: as §1

5-HT3 = molecular target: T5, 5-HT3 (Homo sapiens, UniProt P46098); assay: Competitive radioligand binding (NIMH PDSP)
T5 sequence (P46098 24-478): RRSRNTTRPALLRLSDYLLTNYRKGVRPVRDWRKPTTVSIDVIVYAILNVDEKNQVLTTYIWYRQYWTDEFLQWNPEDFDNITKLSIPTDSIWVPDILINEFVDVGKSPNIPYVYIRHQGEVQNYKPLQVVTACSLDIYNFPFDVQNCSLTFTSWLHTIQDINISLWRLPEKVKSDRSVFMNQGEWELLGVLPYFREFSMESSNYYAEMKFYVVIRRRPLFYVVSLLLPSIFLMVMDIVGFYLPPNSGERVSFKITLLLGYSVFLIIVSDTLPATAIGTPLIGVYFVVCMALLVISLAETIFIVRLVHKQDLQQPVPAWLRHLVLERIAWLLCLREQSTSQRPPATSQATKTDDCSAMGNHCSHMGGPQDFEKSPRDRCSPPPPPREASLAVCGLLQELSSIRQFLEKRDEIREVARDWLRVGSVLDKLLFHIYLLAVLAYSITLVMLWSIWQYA
Experimental: as §1

5-HT2C [5] = molecular target: T2, 5-HT2C; assay: Ca2+ flux assay, 5-HT2C; assay type: cell-based; design: expressed in transfected cells; conditions: for Emax: read-out: 5-HT2C Emax % 5-HT
5-HT2A [6] = assay: Ca2+ flux assay, 5-HT2A; assay type: cell-based, human; conditions: Gq/11 Ca2+ mobilization; higher number = skewed towards 5-HT2A
5-HT2A [7] = molecular target: T4, 5-HT2A; assay: Ca2+ flux assay, 5-HT2A; assay type: cell-based; design: expressed in transfected cells; conditions: for Emax: read-out: 5-HT2A Emax % 5-HT, Ca2+ flux

Sequence of 5-HT1D (P28221 whole entry, species assumed): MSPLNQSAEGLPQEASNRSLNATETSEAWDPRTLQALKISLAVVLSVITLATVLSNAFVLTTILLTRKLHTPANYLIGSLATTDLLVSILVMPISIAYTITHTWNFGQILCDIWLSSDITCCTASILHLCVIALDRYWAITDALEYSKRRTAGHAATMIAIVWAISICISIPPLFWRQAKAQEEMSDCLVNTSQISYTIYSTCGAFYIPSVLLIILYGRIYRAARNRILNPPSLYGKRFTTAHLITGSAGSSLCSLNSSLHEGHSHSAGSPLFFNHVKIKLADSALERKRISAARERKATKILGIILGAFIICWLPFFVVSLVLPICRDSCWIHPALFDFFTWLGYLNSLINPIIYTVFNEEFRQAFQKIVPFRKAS
T1 sequence (P41595 whole entry): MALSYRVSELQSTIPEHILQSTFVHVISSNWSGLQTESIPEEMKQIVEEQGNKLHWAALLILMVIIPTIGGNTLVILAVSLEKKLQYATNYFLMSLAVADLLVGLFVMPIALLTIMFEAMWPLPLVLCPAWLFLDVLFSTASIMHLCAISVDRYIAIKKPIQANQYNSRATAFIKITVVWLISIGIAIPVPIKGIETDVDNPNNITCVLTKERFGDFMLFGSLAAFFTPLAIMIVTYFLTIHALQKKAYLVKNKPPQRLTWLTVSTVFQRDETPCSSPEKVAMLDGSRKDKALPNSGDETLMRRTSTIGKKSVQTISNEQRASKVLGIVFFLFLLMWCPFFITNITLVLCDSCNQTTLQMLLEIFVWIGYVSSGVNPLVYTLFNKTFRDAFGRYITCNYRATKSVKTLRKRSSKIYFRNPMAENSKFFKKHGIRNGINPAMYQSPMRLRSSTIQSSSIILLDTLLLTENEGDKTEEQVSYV
T4 sequence (P28223 whole entry): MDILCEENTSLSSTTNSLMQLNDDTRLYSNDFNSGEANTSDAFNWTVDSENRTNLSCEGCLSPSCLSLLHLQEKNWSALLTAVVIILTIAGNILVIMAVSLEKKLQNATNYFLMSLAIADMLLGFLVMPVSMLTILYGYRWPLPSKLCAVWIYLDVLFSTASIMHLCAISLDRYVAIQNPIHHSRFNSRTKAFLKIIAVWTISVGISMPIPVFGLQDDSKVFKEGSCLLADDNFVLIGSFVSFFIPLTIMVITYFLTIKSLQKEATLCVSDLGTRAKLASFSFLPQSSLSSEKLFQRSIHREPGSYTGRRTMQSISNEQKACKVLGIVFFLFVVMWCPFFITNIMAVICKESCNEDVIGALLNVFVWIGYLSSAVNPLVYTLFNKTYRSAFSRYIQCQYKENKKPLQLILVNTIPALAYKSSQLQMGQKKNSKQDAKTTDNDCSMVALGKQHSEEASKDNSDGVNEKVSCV
Sequence of 5-HT1e (P28566 whole entry, species assumed): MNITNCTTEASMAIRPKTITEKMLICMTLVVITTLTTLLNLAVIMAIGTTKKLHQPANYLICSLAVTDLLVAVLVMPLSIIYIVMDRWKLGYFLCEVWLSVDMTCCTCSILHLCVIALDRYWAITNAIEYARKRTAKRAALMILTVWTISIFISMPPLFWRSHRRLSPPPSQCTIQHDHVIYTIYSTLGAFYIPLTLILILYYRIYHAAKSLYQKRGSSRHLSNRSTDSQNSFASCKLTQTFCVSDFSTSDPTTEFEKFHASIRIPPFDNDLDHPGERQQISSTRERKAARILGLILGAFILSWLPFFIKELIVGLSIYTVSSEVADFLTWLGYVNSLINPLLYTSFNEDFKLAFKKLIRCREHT
Sequence of 5-HT1B (P28222 whole entry, species assumed): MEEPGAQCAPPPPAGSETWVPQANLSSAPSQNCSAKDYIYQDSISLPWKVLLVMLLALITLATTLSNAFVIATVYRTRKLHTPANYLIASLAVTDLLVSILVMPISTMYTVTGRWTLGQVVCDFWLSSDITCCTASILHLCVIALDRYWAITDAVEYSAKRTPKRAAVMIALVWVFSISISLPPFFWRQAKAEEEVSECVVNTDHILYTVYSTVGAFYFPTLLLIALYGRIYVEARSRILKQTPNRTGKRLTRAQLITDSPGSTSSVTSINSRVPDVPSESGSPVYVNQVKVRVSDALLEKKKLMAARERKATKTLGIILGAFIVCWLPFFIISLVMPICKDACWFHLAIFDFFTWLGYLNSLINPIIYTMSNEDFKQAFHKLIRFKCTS

SMILES	Ki (5-HT2B [1])	Ki (5-HT2C [2])	5-HT2B EC50, nM (5-HT2B [3]; Ca2+ flux)	Emax (5-HT2B [3]; Ca2+ flux)	Ki (5-HT1B)	Ki (5-HT1D)	Ki (5-HT1A)	Ki (5-HT2A [4])	Ki (5-HT1e)	Ki (5-HT3)	EC50 (5-HT2C [5]; 5-HT2C EC50, nM)	Emax (5-HT2C [5])	5-HT2A/5-HT2c Selectivity Factor ΔLog(Emax/EC50) (5-HT2A [6])	EC50 (5-HT2A [7]; 5-HT2A EC50, nM, Ca2+ flux)	Emax (5-HT2A [7])	also measured
COc1cc([N+](=O)[O-])c(OC)cc1CCNCc1cccc(C)c1 [25N-NB-3-Me (22), [2-(2,5-dimethoxy-4-nitrophenyl)ethyl][(3-methylphenyl)methyl]amine]	2.88 nM	39.8 nM	No activity	< 10%	> 10000 nM	933 nM	1780 nM	0.209 nM	> 10000 nM	> 10000 nM	14.3 nM	15 ± 2%	29.1	2.27 nM	54 ± 1%	
COc1cc([N+](=O)[O-])c(OC)cc1CCNCc1ccccc1OC(F)(F)F [25N-NBOCF3 (12)]			No activity										6.1			5-HT2B pKi affinity (Ki ± SEM) (5-HT2B [1]): 7.86; 5-HT2C pKi affinity (Ki ± SEM) (5-HT2C [2]): 7.33; 5-HT2B Emax % 5-HT (5-HT2B [3]; Ca2+ flux): <10 % 5-HT; 5-HT1B pKi affinity (Ki ± SEM) (5-HT1B): <5; 5-HT1D pKi affinity (Ki ± SEM) (5-HT1D): <5; 5-HT1A pKi affinity (Ki ± SEM) (5-HT1A): 5.95; 5-HT2A pKi affinity (Ki ± SEM) (5-HT2A [4]): 7.84; 5-HT1e pKi affinity (Ki ± SEM) (5-HT1e): <5; 5-HT3 pKi affinity (Ki ± SEM) (5-HT3): <5; 5-HT2C (pEC50 ± SEM) (5-HT2C [5]): (7.23 ± 0.04); 5-HT2C Emax % 5-HT (5-HT2C [5]): 89 ± 1 % 5-HT; EC50 (5-HT2C [5]; read-out: 5-HT2C EC50): 58.3 nM; 5-HT2A (pEC50 ± SEM) (5-HT2A [7]; Ca2+ flux): (8.09 ± 0.09); 5-HT2A Emax % 5-HT (5-HT2A [7]; Ca2+ flux): 75 ± 2 % 5-HT; EC50 (5-HT2A [7]; Ca2+ flux, read-out: 5-HT2A EC50): 8.09 nM
COc1cc([N+](=O)[O-])c(OC)cc1CCNCc1ccccc1[N+](=O)[O-] [25N-NBNO2 (15), [2-(2,5-dimethoxy-4-nitrophenyl)ethyl][(2-nitrophenyl)methyl]amine]	191 nM	282 nM	No activity	< 10%	> 10000 nM	> 10000 nM	1950 nM	81.3 nM	> 10000 nM	> 10000 nM	583 nM	36 ± 2%	66.8	15.6 nM	≤ 77%	5-HT2A Emax % 5-HT (5-HT2A [7]; Ca2+ flux): 64 ± 2 % 5-HT
COc1cc([N+](=O)[O-])c(OC)cc1CCNCc1cccc(C)c1O [25N-NB-2-OH-3-Me (18), 2-({[2-(2,5-dimethoxy-4-nitrophenyl)ethyl]amino}methyl)-6-methylphenol]	0.776 nM	2.88 nM	No activity	< 10%	> 10000 nM	1290 nM	186 nM	0.479 nM	> 10000 nM	> 10000 nM		< 10%	5-HT2A Selective	1.58 nM	55 ± 2%	5-HT2C EC50, nM (5-HT2C [5]): No activity
COc1cc([N+](=O)[O-])c(OC)cc1CCNCc1ccccc1 [25N-NB (2), Benzyl[2-(2,5-dimethoxy-4-nitrophenyl)ethyl]amine]			No activity	< 10%							26.2 nM	75 ± 1%	23.6	1.27 nM	86 ± 1%	
COc1cc([N+](=O)[O-])c(OC)cc1CCN [2C-N (1), 2-(2,5-dimethoxy-4-nitrophenyl)ethan-1-amine, reference compound]	123 nM	162 nM		72 ± 3%	> 10000 nM	832 nM	1450 nM	72.4 nM	676 nM	> 10000 nM	60.1 nM	69 ± 2%	19.1	4.56 nM	100 ± 1%	EC50 (5-HT2B [3]): 50.3 nM; EC50 (5-HT2A [7]; 5-HT2A (pEC50 ± SEM), Ca2+ flux): 4.9 nM
COc1cc([N+](=O)[O-])c(OC)cc1CCNCc1ccccc1-c1ccccc1 [25N-NBPh (17), ({[1,1′-biphenyl]-2-yl}methyl)[2-(2,5-dimethoxy-4-nitrophenyl)ethyl]amine]	1410 nM	372 nM	No activity	< 10%	> 10000 nM	1200 nM	1780 nM	0.331 nM	> 10000 nM	> 10000 nM		< 10%	5-HT2A Selective		< 10%	5-HT2C EC50, nM (5-HT2C [5]): No activity; 5-HT2A EC50, nM (5-HT2A [7]; Ca2+ flux): No activity
COc1cc([N+](=O)[O-])c(OC)cc1CCNCc1cccc(F)c1OC [25N-NB-2-MeO-3-F (19), [2-(2,5-dimethoxy-4-nitrophenyl)ethyl][(3-fluoro-2-methoxyphenyl)methyl]amine]	25.1 nM	40.7 nM	No activity	< 10%	> 10000 nM	> 10000 nM	1000 nM	7.41 nM	> 10000 nM	> 10000 nM	74.5 nM	77 ± 2%	33.8	2.35 nM	83 ± 1%	
